One test addresses human CB2 receptors (Homo sapiens (Human), UniProt P34972). The test can be described thus: cAMP assay, CHO cells expressing human CB2 receptors. The format is cell-based. As for the experimental part:
(§1) CHO cells expressing human CB1 or CB2 receptors are seeded 17-24 hours prior to the experiment 50.000 cells per well in a black 96 well plate with flat clear bottom (Corning Costar #3904) in DMEM (Invitrogen No. 31331), 1×HT supplement, with 10% fetal calf serum and incubated at 5% CO2 and 37° C. in a humidified incubator. The growth medium was exchanged with Krebs Ringer Bicarbonate buffer with 1 mM IBMX and incubated at 30° C. for 30 min. Compounds were added to a final assay volume of 100 μl and incubated for 30 min at 30° C. […] The time-resolved energy transfer is measured by a TRF reader (Evotec Technologies GmbH), equipped with a ND:YAG laser as excitation source. The plate is measured twice with the excitation at 355 nm and at the emission with a delay of 100 ns and a gate of 100 ns, total exposure time 10 s at 730 (bandwidth30 nm) or 645 nm (bandwidth 75 nm), respectively. The FRET signal is calculated as follows: FRET=T730-Alexa730-P(T645-B645) with P=Ru730-B730/Ru645-B645, where T730 is the test well measured at 730 nM, T645 is the test well measured at 645 nm, B730 and B645 are the buffer controls at 730 nm and 645 nm, respectively. cAMP content is determined from the function of a standard curve spanning from 10 μM to 0.13 nM cAMP.
(§2) EC50 values were determined using Activity Base analysis (ID Business Solution, Limited).
On the technique in general: Changes in cAMP serve as a functional read-out for many G protein-coupled receptors.

The target of a further test is human CB1 receptors (Homo sapiens (Human), UniProt P21554). The test can be described thus: cAMP assay, CHO cells expressing human CB1 receptors. The test is classed as cell-based. As for the experimental part:
as §1, §2

The mark [1] stands for this setting: functional cAMP assay, CHO cells expressing human CB2, read-out: EC50 CB2 human.
Where [2] appears, read: functional cAMP assay, CHO cells expressing human CB1, read-out: EC50 CB1 human.

pEC50: −log10 of the molar value. Where two headings read alike, the source gives them in different places.

The values that follow come from patent US10308659B2, “Pyridine derivatives” (Hoffmann-La Roche Inc., priority 2013, dated 2019).

Chain of human CB1 receptors (P21554 whole entry): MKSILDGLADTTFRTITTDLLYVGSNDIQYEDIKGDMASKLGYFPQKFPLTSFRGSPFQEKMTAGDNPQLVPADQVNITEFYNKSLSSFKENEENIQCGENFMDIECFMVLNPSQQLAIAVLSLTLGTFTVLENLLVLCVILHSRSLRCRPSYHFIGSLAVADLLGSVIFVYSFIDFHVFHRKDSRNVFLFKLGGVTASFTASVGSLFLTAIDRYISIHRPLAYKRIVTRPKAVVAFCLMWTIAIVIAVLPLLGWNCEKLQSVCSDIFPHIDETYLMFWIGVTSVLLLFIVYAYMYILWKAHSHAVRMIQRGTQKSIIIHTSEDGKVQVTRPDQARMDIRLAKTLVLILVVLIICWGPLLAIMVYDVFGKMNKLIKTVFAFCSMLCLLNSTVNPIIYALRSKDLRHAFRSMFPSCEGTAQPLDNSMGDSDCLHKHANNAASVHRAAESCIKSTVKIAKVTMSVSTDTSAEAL
Chain of human CB2 receptors (P34972 whole entry): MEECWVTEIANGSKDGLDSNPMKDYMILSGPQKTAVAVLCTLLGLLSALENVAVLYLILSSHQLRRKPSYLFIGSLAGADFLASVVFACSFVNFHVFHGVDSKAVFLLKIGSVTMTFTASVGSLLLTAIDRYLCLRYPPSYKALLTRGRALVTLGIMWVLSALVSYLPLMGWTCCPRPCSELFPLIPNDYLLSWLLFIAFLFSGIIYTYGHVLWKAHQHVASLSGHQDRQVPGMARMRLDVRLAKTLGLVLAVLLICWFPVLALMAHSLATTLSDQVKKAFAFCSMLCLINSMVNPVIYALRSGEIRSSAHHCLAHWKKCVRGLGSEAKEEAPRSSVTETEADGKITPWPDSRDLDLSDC

For the compound `FC(F)(F)COc1cc(-c2noc(C3CC3)n2)ncc1C1CC1` [Example 72, 5-cyclopropyl-3-[5-cyclopropyl-4-(2,2,2-trifluoroethoxy)pyridin-2-yl]-1,2,4-oxadiazole], the pEC50 is 7.34 at human CB2 receptors (setting [1]) and under 5.00 on human CB1 receptors (setting [2]).

With `CC(C)(C)c1nc(-c2cc(OCCN3CCCCC3)c(C3CC3)cn2)no1` [Example 95, 5-tert-butyl-3-[5-cyclopropyl-4-(2-piperidin-1-ylethoxy)pyridin-2-yl]-1,2,4-oxadiazole], the figures for the pEC50 on human CB2 receptors (setting [1]) and on human CB1 receptors (setting [2]) were 7.58 and under 5.00, respectively.

`CN1CCCC(Oc2cc(-c3noc(C(C)(C)C)n3)ncc2C2CC2)C1` (stereo not drawn) [Example 99, 5-tert-butyl-3-[5-cyclopropyl-4-(1-methylpiperidin-3-yl)oxypyridin-2-yl]-1,2,4-oxadiazole]: the pEC50 on human CB2 receptors (setting [1]) is 6.50; at human CB1 receptors (setting [2]), under 5.00.

Turning to `CC1(COc2cc(-c3noc(C(C)(C)C)n3)ncc2C2CC2)COC1` [Example 55, 5-tert-butyl-3-[5-cyclopropyl-4-[(3-methyloxetan-3-yl)methoxy]pyridin-2-yl]-1,2,4-oxadiazole], the values for the pEC50 at human CB2 receptors (setting [1]) and at human CB1 receptors (setting [2]) were 8.11 and under 5.00, respectively.

For `CC1(c2nc(-c3cc(OCC4CC4)c(C4CC4)cn3)no2)CC1` [Example 24, 3-[5-cyclopropyl-4-(cyclopropylmethoxy)pyridin-2-yl]-5-(1-methylcyclopropyl)-1,2,4-oxadiazole], the pEC50 at human CB2 receptors (setting [1]) was 8.37; on human CB1 receptors (setting [2]), 6.24.

Turning to `CCC1(CC)COC(c2cc(OCC3CC3)c(C3CC3)cn2)=N1` [Example 11, 2-[5-cyclopropyl-4-(cyclopropylmethoxy)pyridin-2-yl]-4,4-diethyl-5H-1,3-oxazole], the negative logarithm of the EC50 (pEC50) is 9.22 on human CB2 receptors (setting [1]) and under 5.00 on human CB1 receptors (setting [2]).

For the compound `FC(F)(F)COc1cc(-c2nc(C3CC3)no2)ncc1N1CC(F)(F)C1` [Example 15, 3-cyclopropyl-5-[5-(3,3-difluoroazetidin-1-yl)-4-(2,2,2-trifluoroethoxy)pyridin-2-yl]-1,2,4-oxadiazole], the results for the negative logarithm of the EC50 (pEC50) at human CB2 receptors (setting [1]) and at human CB1 receptors (setting [2]) were 7.70 and under 5.00, respectively.

For the compound `CC(C)(C)[C@H]1COC(c2cc(OCC3CC3)c(C3CC3)cn2)=N1` [Example 20, (4S)-4-tert-butyl-2-[5-cyclopropyl-4-(cyclopropylmethoxy)pyridin-2-yl]-4,5-dihydro-1,3-oxazole], the negative logarithm of the EC50 (pEC50) was 8.43 at human CB2 receptors (setting [1]) and under 5.00 at human CB1 receptors (setting [2]).

`CC(C)(C)c1noc(-c2cc(OC3CCOCC3)c(C3CC3)cn2)n1` [Example 121, 3-tert-butyl-5-(5-cyclopropyl-4-(tetrahydro-2H-pyran-4-yloxy)pyridin-2-yl)-1,2,4-oxadiazole]: the figures for the negative logarithm of the EC50 (pEC50) at human CB2 receptors (setting [1]) and on human CB1 receptors (setting [2]) were 9.00 and under 5.00, respectively.

In the case of `CC(C)CC1(C)N=C(c2cc(OCC(F)(F)F)c(C3CC3)cn2)NC1=O` (stereo not drawn) [Example 69, 2-[5-cyclopropyl-4-(2,2,2-trifluoroethoxy)pyridin-2-yl]-4-methyl-4-(2-methylpropyl)-1H-imidazol-5-one], the figures for the negative logarithm of the EC50 (pEC50) on human CB2 receptors (setting [1]) and at human CB1 receptors (setting [2]) were 8.05 and under 5.00, respectively.

For `NC1(c2nc(-c3cc(OCC4CC4)c(C4CC4)cn3)no2)COC1` [Example 60, 3-[3-[5-cyclopropyl-4-(cyclopropylmethoxy)pyridin-2-yl]-1,2,4-oxadiazol-5-yl]oxetan-3-amine], the values for the pEC50 on human CB2 receptors (setting [1]) and on human CB1 receptors (setting [2]) were 6.35 and under 5.00, respectively.

`FC(F)(F)COc1cc(-c2nc(C(F)(F)F)no2)ncc1C1CC1` [Example 8, 5-[5-cyclopropyl-4-(2,2,2-trifluoroethoxy)pyridin-2-yl]-3-(trifluoromethyl)-1,2,4-oxadiazole]: the pEC50 was 7.67 on human CB2 receptors (setting [1]) and under 5.00 on human CB1 receptors (setting [2]).

Turning to `NC(=O)C1(c2nc(-c3cc(OCC4CC4)c(C4CC4)cn3)no2)CC1` [Example 25, 1-[3-[5-cyclopropyl-4-(cyclopropylmethoxy)pyridin-2-yl]-1,2,4-oxadiazol-5-yl]cyclopropane-1-carboxamide], the results for the pEC50 at human CB2 receptors (setting [1]) and at human CB1 receptors (setting [2]) were 6.87 and under 5.00, respectively.

Take `CC(C)(C)c1nc(-c2cc(OCc3ccc(F)cc3)c(C3CC3)cn2)no1` [Example 53, 5-tert-butyl-3-[5-cyclopropyl-4-[(4-fluorophenyl)methoxy]pyridin-2-yl]-1,2,4-oxadiazole]: the negative logarithm of the EC50 (pEC50) at human CB2 receptors (setting [1]) is 8.85; at human CB1 receptors (setting [2]), 7.26.

As for `OC1(c2nc(-c3cc(OCC(F)(F)F)c(C4CC4)cn3)no2)CC1` [Example 37, 1-[3-[5-cyclopropyl-4-(2,2,2-trifluoroethoxy)pyridin-2-yl]-1,2,4-oxadiazol-5-yl]cyclopropan-1-ol], the pEC50 on human CB2 receptors (setting [1]) was 6.63; at human CB1 receptors (setting [2]), under 5.00.

Consider `Cc1cc(COc2cc(-c3noc(C(C)(C)C)n3)ncc2C2CC2)no1` [Example 107, 5-tert-butyl-3-[5-cyclopropyl-4-[(5-methyl-1,2-oxazol-3-yl)methoxy]pyridin-2-yl]-1,2,4-oxadiazole], for which the pEC50 on human CB2 receptors (setting [1]) was 7.02; on human CB1 receptors (setting [2]) it was under 5.00.

On to `CCN1CCCC(Oc2cc(-c3noc(C(C)(C)C)n3)ncc2C2CC2)C1` (stereo not drawn) [Example 100, 5-tert-butyl-3-[5-cyclopropyl-4-(1-ethylpiperidin-3-yl)oxypyridin-2-yl]-1,2,4-oxadiazole], for which the pEC50 was 6.29 at human CB2 receptors (setting [1]) and under 5.00 at human CB1 receptors (setting [2]).

For `FC(F)(F)COc1cc(-c2ncon2)ncc1C1CC1` [Example 39, 3-[5-cyclopropyl-4-(2,2,2-trifluoroethoxy)pyridin-2-yl]-1,2,4-oxadiazole], the negative logarithm of the EC50 (pEC50) at human CB2 receptors (setting [1]) was 6.36; on human CB1 receptors (setting [2]), under 5.00.

Turning to `CC(C)(C)c1nc(-c2cc(OCC(F)(F)F)c(C3CC3)cn2)no1` [Example 33, 5-tert-butyl-3-[5-cyclopropyl-4-(2,2,2-trifluoroethoxy)pyridin-2-yl]-1,2,4-oxadiazole], the negative-log EC50 (pEC50) at human CB2 receptors is 8.16; on human CB1 receptors, under 5.00.

Consider `OCc1nc(-c2cc(OCC3CC3)c(C3CC3)cn2)no1` [Example 18, [3-[5-cyclopropyl-4-(cyclopropylmethoxy)pyridin-2-yl]-1,2,4-oxadiazol-5-yl]methanol], for which the pEC50 on human CB2 receptors (setting [1]) is 6.96; on human CB1 receptors (setting [2]), under 5.00.

With `COC(C)CCOc1cc(-c2noc(C(C)(C)C)n2)ncc1C1CC1` (stereo not drawn) [Example 89, 5-tert-butyl-3-[5-cyclopropyl-4-(3-methoxybutoxy)pyridin-2-yl]-1,2,4-oxadiazole], the pEC50 is 7.79 at human CB2 receptors (setting [1]) and under 5.00 on human CB1 receptors (setting [2]).

Take `CC(C)c1nc(-c2cc(OCC3CC3)c(C3CC3)cn2)no1` [Example 14, 3-[5-cyclopropyl-4-(cyclopropylmethoxy)pyridin-2-yl]-5-propan-2-yl-1,2,4-oxadiazole]: the pEC50 was 8.43 at human CB2 receptors (setting [1]) and under 5.00 at human CB1 receptors (setting [2]).

For `CC(C)c1nc(-c2cc(OCC(F)(F)F)c(C3CC3)cn2)no1` [Example 36, 3-[5-cyclopropyl-4-(2,2,2-trifluoroethoxy)pyridin-2-yl]-5-propan-2-yl-1,2,4-oxadiazole], the pEC50 at human CB2 receptors (setting [1]) is 7.68; at human CB1 receptors (setting [2]), under 5.00.

Consider `c1ccc(Cc2noc(-c3cc(OCC4CC4)c(C4CC4)cn3)n2)cc1` [Example 5, 3-benzyl-5-[5-cyclopropyl-4-(cyclopropylmethoxy)pyridin-2-yl]-1,2,4-oxadiazole], for which the negative-log EC50 (pEC50) at human CB2 receptors (setting [1]) was 7.16; on human CB1 receptors (setting [2]), under 5.00.

As to `OC1(c2nc(-c3cc(OCC(F)(F)F)c(N4CC(F)(F)C4)cn3)no2)CC1` [Example 46, 1-[3-[5-(3,3-difluoroazetidin-1-yl)-4-(2,2,2-trifluoroethoxy)pyridin-2-yl]-1,2,4-oxadiazol-5-yl]cyclopropan-1-ol], the pEC50 was 6.75 at human CB2 receptors (setting [1]) and under 5.00 on human CB1 receptors (setting [2]).

`COCC(C)Oc1cc(-c2noc(C(C)(C)C)n2)ncc1C1CC1` (stereo not drawn) [Example 87, 5-tert-butyl-3-[5-cyclopropyl-4-(1-methoxypropan-2-yloxy)pyridin-2-yl]-1,2,4-oxadiazole]: the pEC50 at human CB2 receptors (setting [1]) was 6.95; on human CB1 receptors (setting [2]), under 5.00.

With `CC(C)(C)c1nnc(-c2cc(OC3CCOCC3)c(C3CC3)cn2)o1` [Example 98, 2-tert-butyl-5-[5-cyclopropyl-4-(oxan-4-yloxy)pyridin-2-yl]-1,3,4-oxadiazole], the pEC50 is 7.38 at human CB2 receptors (setting [1]) and under 5.00 at human CB1 receptors (setting [2]).

Turning to `CC(C)(C)c1nc(-c2cc(N3CC(F)(F)C(F)(F)C3)c(C3CC3)cn2)no1` [Example 74, 5-tert-butyl-3-[5-cyclopropyl-4-(3,3,4,4-tetrafluoropyrrolidin-1-yl)pyridin-2-yl]-1,2,4-oxadiazole], the negative-log EC50 (pEC50) on human CB2 receptors (setting [1]) was 8.33; at human CB1 receptors (setting [2]) it was under 5.00.

In the case of `c1c(-c2nc(C3CC3)no2)ncc(C2CC2)c1OCC1CC1` [Example 3, 3-cyclopropyl-5-[5-cyclopropyl-4-(cyclopropylmethoxy)pyridin-2-yl]-1,2,4-oxadiazole], the values for the pEC50 at human CB2 receptors (setting [1]) and at human CB1 receptors (setting [2]) were 8.92 and under 5.00, respectively.

As for `C[C@@H](Oc1cc(-c2nc(C(C)(C)C)no2)ncc1C1CC1)C(F)(F)F` [Example 51, 3-tert-butyl-5-[5-cyclopropyl-4-[(2R)-1,1,1-trifluoropropan-2-yl]oxypyridin-2-yl]-1,2,4-oxadiazole], the negative-log EC50 (pEC50) at human CB2 receptors (setting [1]) is 7.21; at human CB1 receptors (setting [2]), under 5.00.

What is called pEC50 is the negative decadic logarithm of the EC50, by convention in mol/L.
